What all share (assay type): cell-based
Assay [1] concerns Pseudomonas aeruginosa ATCC 9027. The following applies: Mueller Hinton Broth; complete growth inhibition not achieved. From the text:
(§1) The bolisin analogues of the present invention were examined for their suitability as antibiotic therapeutical agents by means of various biological tests. Thus, the chemically synthesized peptides were examined for their antimicrobial effectiveness against three Gram-positive and three Gram-negative bacterial strains as well as against a yeast.
(§2) The following microorganisms were used: • Gram-positive: Staphylococcus aureus ATCC 25923 • Enterococcus faecalis ATCC 51299 (vancomycin-resistant) • Streptococcus pneumoniae DSM 11865 (penicillin-resistant) • Gram-negative: Escherichia coli ATCC 25922 • Pseudomonas aeruginosa ATCC 9027 • Klebsiella pneumoniae ATCC 10031 • Yeast: Candida albicans ATCC 10231
(§3) The antibiotic activity of bolisin analogues was examined by determining the minimum inhibition concentration. The minimum inhibition concentration of an analogue designates the lowest peptide concentration which is required to inhibit the growth of microorganisms completely after an incubation time of 18±2 h. This method allows to obtain a quantitative result about the antimicrobial potency of the peptides. These examinations were performed by analogy with the recommendations (M7-A3) edited by the NCCLS (National Committee for Clinical Laboratory Standards) by applying a dilution test in a liquid medium using chemically synthesized peptides (peptide sequences according to claims 1 to 3). Mueller Hinton Broth was used as the test medium according to the NCCLS recommendations unless indicated otherwise. […] The minimum inhibition concentrations are stated in [μg/ml].
(§4) A complete growth inhibition could not be achieved in this case. For determining the minimum inhibition concentration, the following microorganisms were used: • 1. Staphylococcus aureus ATCC 25923 • 2. Enterococcus faecalis ATCC 51299 (vancomycin-resistant) • 3. Streptococcus pneumoniae DSM 11865 (penicillin-resistant) • 4. Escherichia coli ATCC 25922 • 5. Pseudomonas aeruginosa ATCC 9027 • 6. Klebsiella pneumoniae ATCC 10031 • 7. Candida albicans ATCC 10231

For assay [2], the system named is Escherichia coli ATCC 25922. To be noted: ATCC 25922, 2 h.
Text: as §1, §2
as §3, with “The minimum inhibition concentration of an analogue designates the lowest peptide concentration which is required to inhibit the growth of microorganisms completely after an incubation time of 18±2 h.” left out
as §4

For assay [3], the system named is Streptococcus pneumoniae DSM 11865 (penicillin-resistant). The following applies: DSM 11865, 2 h.
Text: as §1, §2
as §3, with “The minimum inhibition concentration of an analogue designates the lowest peptide concentration which is required to inhibit the growth of microorganisms completely after an incubation time of 18±2 h.” left out
as §4

For assay [4], the system named is Klebsiella pneumoniae ATCC 10031. The following applies: ATCC 10031, 2 h.
Text: as §1, §2
as §3, with “The minimum inhibition concentration of an analogue designates the lowest peptide concentration which is required to inhibit the growth of microorganisms completely after an incubation time of 18±2 h.” left out
as §4

For assay [5], the system named is Enterococcus faecalis ATCC 51299 (vancomycin-resistant). The following applies: ATCC 51299, 2 h.
Text: as §1, §2
as §3, with “The minimum inhibition concentration of an analogue designates the lowest peptide concentration which is required to inhibit the growth of microorganisms completely after an incubation time of 18±2 h.” left out
as §4

Assay [6] deals with Candida albicans ATCC 10231. To be noted: for minimum inhibition concentration: ATCC 10231, 2 h; for peptide concentration giving 75% inhibition of growth (value in parentheses): Mueller Hinton Broth, complete growth inhibition not achieved.
Text: as §1, §2
as §3, with “The minimum inhibition concentration of an analogue designates the lowest peptide concentration which is required to inhibit the growth of microorganisms completely after an incubation time of 18±2 h.” left out
as §4

The test system of assay [7] is Staphylococcus aureus ATCC 25923. To be noted: ATCC 25923, 2 h.
Text: as §1, §2
as §3, with “The minimum inhibition concentration of an analogue designates the lowest peptide concentration which is required to inhibit the growth of microorganisms completely after an incubation time of 18±2 h.” left out
as §4

Ends that are not written are not given here. Some results are limits rather than exact numbers.

For the substance “YIVWKIRSAWKRSKALK-OH [BOL-75, YIVWKIRSAWKRSKALK]”, in assay [1], the “peptide concentration giving 75% inhibition of growth (value in parentheses)” value is “(37.5) μg/ml”. Besides, the minimum inhibition concentration was 75 µg/mL in assay [2]; 150 µg/mL in assay [3]; 75 µg/mL in assay [4]; 200 µg/mL in assay [5]; 37.5 µg/mL in assay [6]; 150 µg/mL in assay [7].
With “KYIVYKIRSAWKRSKALK-OH [BOL-85, KYIVYKIRSAWKRSKALK]”, the “peptide concentration giving 75% inhibition of growth (value in parentheses)” value in assay [1] is on record as “(37.5) μg/ml”. Besides, the minimum inhibition concentration in assay [2] was more than 300 µg/mL; in assay [3] it was 300 µg/mL; in assay [4], 150 µg/mL; in assay [5], 300 µg/mL; in assay [6] it was 75 µg/mL; in assay [7] it was more than 300 µg/mL.
As to “YIVYKIRRAWKRSKALK-OH [BOL-53, YIVYKIRRAWKRSKALK]”, the “peptide concentration giving 75% inhibition of growth (value in parentheses)” value is listed as “(75) μg/ml” in assay [1] and “(37.5) μg/ml” in assay [6]. Besides, the minimum inhibition concentration in assay [2] turned out to be 200 µg/mL; in assay [3] it was 200 µg/mL; in assay [4], 100 µg/mL; in assay [5], 200 µg/mL; in assay [7] it was 150 µg/mL.
With “YIVYKIRSAWKRWK-OH [BOL-70, YIVYKIRSAWKRWK]”, the “peptide concentration giving 75% inhibition of growth (value in parentheses)” value in assay [1] is on record as “(100) μg/ml”. The minimum inhibition concentration in assay [2] was 100 µg/mL; in assay [3], 150 µg/mL; in assay [4], 75 µg/mL; in assay [5], 150 µg/mL; in assay [6] it was 37.5 µg/mL; in assay [7] it was 100 µg/mL.
For the substance “YIVYKIRSAWKRWKAL [BOL-67, YIVYKIRSAWKRWKAL]”, the “peptide concentration giving 75% inhibition of growth (value in parentheses)” value in assay [1] was “(50) μg/ml”. Besides, the minimum inhibition concentration in assay [2] was 25 µg/mL; in assay [3] it was 100 µg/mL; in assay [4] it was 37.5 µg/mL; in assay [5] it was 100 µg/mL; in assay [6], 18.75 µg/mL; in assay [7], 25 µg/mL.
For “YIVYKIRSAWKRRK-OH [BOL-69, YIVYKIRSAWKRRK]”, the “peptide concentration giving 75% inhibition of growth (value in parentheses)” value in assay [1] is recorded as “(200) μg/ml”. For the same substance, the minimum inhibition concentration in assay [2] came out at 150 µg/mL; in assay [3], 200 µg/mL; in assay [4] it was 300 µg/mL; in assay [5], 150 µg/mL; in assay [6] it was 37.5 µg/mL; in assay [7] it was 300 µg/mL.
For the substance “YIVYKIRWARKRSKALK-OH [BOL-49, YIVYKIRWARKRSKALK]”, the “peptide concentration giving 75% inhibition of growth (value in parentheses)” value in assay [1] is reported as “(12.5) μg/ml”. Moreover, the minimum inhibition concentration came to 50 µg/mL in assay [2]; 18.75 µg/mL in assay [3]; 18.75 µg/mL in assay [4]; 25 µg/mL in assay [5]; 18.75 µg/mL in assay [6]; 75 µg/mL in assay [7].
As for “YIVYKIRWAKKRKKALK-OH [BOL-59, YIVYKIRWAKKRKKALK]”, the figures for the “peptide concentration giving 75% inhibition of growth (value in parentheses)” value in assay [1] and in assay [6] were “(18.75) μg/ml” and “(9.375) μg/ml”, respectively. Moreover, the minimum inhibition concentration turned out to be 150 µg/mL in assay [2]; 50 µg/mL in assay [3]; 18.75 µg/mL in assay [4]; 50 µg/mL in assay [5]; 50 µg/mL in assay [7].
Take “YIVYKIRSAWKRKKALK-OH [BOL-58, YIVYKIRSAWKRKKALK]”: the “peptide concentration giving 75% inhibition of growth (value in parentheses)” value is listed as “(100) μg/ml” in assay [1] and “(75) μg/ml” in assay [6]. The minimum inhibition concentration in assay [2] was more than 300 µg/mL; in assay [3] it was 300 µg/mL; in assay [4] it was 100 µg/mL; in assay [5], more than 300 µg/mL; in assay [7], more than 300 µg/mL.
Regarding “YIVRKIRSAWKRRKALK-OH [BOL-80, YIVRKIRSAWKRRKALK]”, in assay [1], the “peptide concentration giving 75% inhibition of growth (value in parentheses)” value is “(18.75) μg/ml”. The minimum inhibition concentration in assay [2] was more than 300 µg/mL; in assay [3], more than 300 µg/mL; in assay [4], 150 µg/mL; in assay [5] it was more than 300 µg/mL; in assay [6] it was 37.5 µg/mL; in assay [7], more than 300 µg/mL.
On to “YIVYKIRWAKKRWKALK-OH [BOL-60, YIVYKIRWAKKRWKALK]”, for which the “peptide concentration giving 75% inhibition of growth (value in parentheses)” value in assay [1] and in assay [6] was “(18.75) μg/ml” in each case. Also, the minimum inhibition concentration in assay [2] was 100 µg/mL; in assay [3], 50 µg/mL; in assay [4] it was 18.75 µg/mL; in assay [5], 25 µg/mL; in assay [7], 50 µg/mL.
As for “YIVWKIRSARKRRKALK-OH [BOL-74, YIVWKIRSARKRRKALK]”, in assay [1], the “peptide concentration giving 75% inhibition of growth (value in parentheses)” value is given as “(12.5) μg/ml”. Moreover, the minimum inhibition concentration in assay [2] came out at 300 µg/mL; in assay [3] it was 150 µg/mL; in assay [4] it was 18.75 µg/mL; in assay [5] it was 150 µg/mL; in assay [6], 75 µg/mL; in assay [7] it was 300 µg/mL.
As for “YIVYKIRRAWKRWKALK-OH [BOL-55, YIVYKIRRAWKRWKALK]”, the “peptide concentration giving 75% inhibition of growth (value in parentheses)” value in assay [1] is “(9.375) μg/ml”. Moreover, the minimum inhibition concentration was 12.5 µg/mL in assay [2]; 37.5 µg/mL in assay [3]; 3.125 µg/mL in assay [4]; 50 µg/mL in assay [5]; 9.375 µg/mL in assay [6]; 12.5 µg/mL in assay [7].
Consider “YIVYKIRSAWKRWKALK-OH [BOL-45, YIVYKIRSAWKRWKALK]”, for which the “peptide concentration giving 75% inhibition of growth (value in parentheses)” value in assay [1] is “(25) μg/ml”. Also, the minimum inhibition concentration in assay [2] came out at 12.5 µg/mL; in assay [3], 100 µg/mL; in assay [4] it was 4.7 µg/mL; in assay [5], 100 µg/mL; in assay [6], 18.75 µg/mL; in assay [7], 18.75 µg/mL.
As for “YIVYKIRSAKKRWKALK-OH [BOL-57, YIVYKIRSAKKRWKALK]”, the “peptide concentration giving 75% inhibition of growth (value in parentheses)” value in assay [1] is on record as “(200) μg/ml”. In addition, the minimum inhibition concentration in assay [2] was more than 300 µg/mL; in assay [3], more than 300 µg/mL; in assay [4], 300 µg/mL; in assay [5], more than 300 µg/mL; in assay [6] it was 300 µg/mL; in assay [7] it was more than 300 µg/mL.
As to “YIVYKIRWARKRRK-OH [BOL-73, YIVYKIRWARKRRK]”, the “peptide concentration giving 75% inhibition of growth (value in parentheses)” value in assay [1] was “(9.375) μg/ml”. The minimum inhibition concentration in assay [2] was determined as 50 µg/mL; in assay [3], 18.75 µg/mL; in assay [4], 18.75 µg/mL; in assay [5], 25 µg/mL; in assay [6], 9.375 µg/mL; in assay [7] it was 37.5 µg/mL.

For the origin of these results see patent US7449545B2, “Antimicrobial bolisin peptides” (IPF Pharmaceuticals GmbH, priority 2001, dated 2008).
